Data published in patent publication US10562843B2 (The United States of America, as represented by the …, priority 2006, dated 2020).
Structures can show the parent of a compound that is named as a salt. Where two headings read alike, the source gives them in different places.

Tests used:
human β2-AR = human β2-AR (Homo sapiens, UniProt P07550)
[1] = test system: freshly isolated adult rat cardiomyocytes; test: Cardiomyocyte contractility, dose-response; format: cell-based; details: for maximum contractile response: 10^−8 to 10^−5 M; for EC50: contractility dose-response
Description: All studies were performed within 8 hours of cell isolation.
The cells were placed on the stage of an inverted microscope (Zeiss model IM-35, Zeiss, Thornwood, N.Y.), perfused with the HEPES-buffered solution at a flow rate of 1.8 mL/minutes, and electrically stimulated at 0.5 Hz at 23° C. Cell length was monitored by an optical edge-tracking method using a photodiode array (Model 1024 SAQ, Reticon, Boston, Mass.) with a 3 ms time resolution. Cell contraction was measured by the percent shortening of cell length following electrical stimulation.

[2] = IV 5 mg/kg; for Average plasma concentration: average of rats
[3] = test system: single ventricular myocytes; test: Cardiomyocyte contractility, single dose, with and without ICI 118,551; format: cell-based
Description: In these studies, the contraction amplitude indexed by electrical pacing induced shortening of cell length was measured in single ventricular myocytes before and after exposure to a single dose of the test compounds.

in vivo = details: male, Sprague-Dawley, rat, plasma, iv, 5 mg/kg
[4] = Average plasma concentration, average of rats, IV 5 mg/kg
[5] = Individual plasma concentration, individual rat, IV 5 mg/kg

Sequence of human β2-AR (P07550 whole entry): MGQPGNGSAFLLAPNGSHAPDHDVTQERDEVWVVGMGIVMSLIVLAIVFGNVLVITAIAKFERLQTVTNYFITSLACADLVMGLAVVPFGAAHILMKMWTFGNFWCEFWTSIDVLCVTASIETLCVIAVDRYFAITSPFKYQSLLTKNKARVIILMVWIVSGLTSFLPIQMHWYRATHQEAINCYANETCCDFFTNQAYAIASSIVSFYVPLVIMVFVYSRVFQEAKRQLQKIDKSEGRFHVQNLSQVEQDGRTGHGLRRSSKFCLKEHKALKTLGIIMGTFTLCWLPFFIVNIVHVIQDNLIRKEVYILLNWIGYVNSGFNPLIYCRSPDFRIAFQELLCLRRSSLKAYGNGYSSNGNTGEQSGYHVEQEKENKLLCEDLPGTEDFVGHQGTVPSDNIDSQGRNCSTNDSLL

## C[C@H](Cc1cccc2ccccc12)NC[C@@H](O)c1cc(O)cc(O)c1.O=C(O)/C=C/C(=O)O (racemic) [(S,R)-5, (S,R)-(+)-5-{1-hydroxy-2-[1-methyl-2-(1-naphthyl)ethylamino]ethyl}-1,3-benzenediol fumarate]
Human β2-AR
  Ki β1/Ki β2: 19

## C[C@H](Cc1ccc(O)cc1)NC[C@H](O)c1cc(O)cc(O)c1 [(R,R)-1, (R,R)-(−)-Fenoterol]
[1]
  maximum contractile response: 306±11.8 % resting cell length
  EC50: −7.1±0.2 log [M]
[2]; 5 min
  Average plasma concentration: 1.34 µg/mL
[2]; 15 min
  Average plasma concentration: 0.36 µg/mL
[2]; 30 min
  Average plasma concentration: 0.34 µg/mL
[2]; 60 min
  Average plasma concentration: 0.05 µg/mL
[2]; 120 min
  Average plasma concentration: 0.02 µg/mL
[2]; 240 min
  Average plasma concentration: 0.01 µg/mL
[2]; 300 min
  Average plasma concentration: 0.005 µg/mL
[2]; 360 min
  Average plasma concentration: 0.06 µg/mL
[2]; rat, two-compartment open model
  AUC: 29.6861 µg·min/mL

## C[C@H](Cc1cccc2ccccc12)NC[C@H](O)c1cc(O)cc(O)c1.O=C(O)/C=C/C(=O)O [(R,R)-5, (R,R)-(−)-5-{1-hydroxy-2-[1-methyl-2-(1-naphthyl)ethylamino]ethyl}-1,3-benzenediol fumarate]
[3]
  concentration eliciting maximum effect: 0.1 µM
Human β2-AR
  Ki β1/Ki β2: 14

## COc1ccc(C[C@@H](C)NC[C@H](O)c2cc(O)cc(O)c2)cc1 [(R,R)-2, (R,R)-(−)-1-p-Methoxyphenyl-2-(β-3′,5′-dihydroxy-phenyl-β-oxy)ethylamino-propane Fumarate]
In vivo
  AUC: 1600 ng·h/mL
  Vd: 2.19 L
  clearance: 15.4 mL/min
  half-life: 13.2 min
In vivo; [4]
  concentration at 5 min: 2120 ng/mL
  concentration at 15 min: 580 ng/mL
  concentration at 30 min: 410 ng/mL
  concentration at 60 min: 260 ng/mL
  concentration at 120 min: 170 ng/mL
  concentration at 300 min: 70 ng/mL
  concentration at 360 min: 60 ng/mL
In vivo; Average plasma concentration, average of rats, IV 5 mg/kg, 240 min
  concentration at 240 min: 120 ng/mL
In vivo; [5]
  concentration at 5 min: 1940 ng/mL
  concentration at 15 min: 480 ng/mL
  concentration at 30 min: 310 ng/mL
  concentration at 60 min: 230 ng/mL
  concentration at 120 min: 140 ng/mL
  concentration at 300 min: 60 ng/mL
  concentration at 360 min: 50 ng/mL
[2]; rat
  systemic exposure (AUC) and clearance compared to (R,R)-fenoterol: significantly higher systemic exposure (AUC) and longer clearance

## C[C@@H](Cc1ccc(O)cc1)NC[C@@H](O)c1cc(O)cc(O)c1 [(S,S)-1, (S,S)-(+)-Fenoterol]
[1]
  inotropic effect: only a minor positive inotropic effect
[3]; single dose, ICI 118,551 10^−7 mol/L
  contractile response: no observed pharmacological effect

## C[C@@H](Cc1cccc2ccccc12)NC[C@H](O)c1cc(O)cc(O)c1.O=C(O)/C=C/C(=O)O [(R,S)-5, (R,S)-(−)-5-{1-hydroxy-2-[1-methyl-2-(1-naphthyl)ethylamino]ethyl}-1,3-benzenediol fumarate]
[3]
  concentration eliciting maximum effect: 0.1 µM
Human β2-AR
  Ki β1/Ki β2: 46
[2]; rat
  systemic exposure (AUC) and clearance compared to (R,R)-fenoterol: significantly higher systemic exposure (AUC) and longer clearance

## CC(Cc1ccc(O)cc1)NCC(O)c1ccc(O)c(O)c1 (racemic) [(±)-fenoterol, 5-[1-hydroxy-2[[2-(4-hydroxyphenyl)-1-methylethyl]-amino]ethyl]1,2-benzenediol, reference compound]
[1]
  maximum contractile response: 265±11.6 % resting cell length
[1]; Rattus norvegicus, Cardiomyocyte, read-out: EC50 (converted)
  EC50: 100 nM
